Assay results as given in PMC5978884, “Dissection of the antimicrobial and hemolytic activity of Cap18: Generation of Cap18 derivatives with enhanced specificity” (PLoS ONE, 2018).
≈ marks a conversion by molar mass, not a printed value. Where two headings read alike, the source gives them in different places. Where no end group is shown, it is not given here.

How the values were obtained:
Type in all cases: cell-based
[1] = tested on: Salmonella enterica serovar Typhimurium LT2; assay: microbe, parasite or virus in culture; conditions: for MIC S. Typhimurium / MIC S. Typhimurium LT2: LT2; for MIC: Salmonella enterica, TYPHIMURIUM, read-out: MIC Salmonella Typhimurium LT2
Protocol: (§1) All strains were grown in Mueller-Hinton-II medium, except L. monocytogenes which was grown in BHI medium and L. lactis which was grown in MRS medium. Incubation took place aerobically at 37°C, except for Y. ruckeri and A. salmonicida, which were grown aerobically at RT (20 °C), and L. lactis grown aerobically at 30°C. All plates were incubated for 16–21 hours.
(§2) The minimum inhibitory concentrations (MICs) of the AMPs were measured in 96-well microtiter plates according the Clinical and Laboratory Standards Institute (CLSI, formerly National Committee for Clinical Laboratory Standards [NCCLS]). Briefly, liquid Mueller-Hinton-II medium containing increasing concentrations of AMPs is inoculated with a defined number of cells (approx. 10^5 CFUs/ml) in 96-well microtiter plates (polypropylene), whereas each plate also includes a positive growth control and a negative control (sterile control). The range of peptide concentrations analyzed was 0.125–64 μg/ml for the high purity peptides and 0.06–32 μg/ml for peptides of the variant library. After incubation, the MIC is determined by the lowest concentration showing no visible growth. All plates were incubated for 16–20 hours. The MIC of the reference antibiotics was determined by the use of Sensititre panels (Trek Diagnostic Systems Ltd, East Grinstead, UK).

[2] = tested on: Aeromonas salmonicida ATCC33658; assay: microbe, parasite or virus in culture; conditions: for MIC: Aeromonas salmonicida
Protocol: as §1, §2

[3] = tested on: Yersinia ruckeri 392/2003; assay: microbe, parasite or virus in culture; conditions: for MIC: Yersinia ruckeri, 392/2003, read-out: MIC Yersinia ruckeri 392/2003
Protocol: as §1, §2

[4] = tested on: Enterococcus faecalis ATCC29212
Protocol: as §1, §2

[5] = tested on: Escherichia coli ATCC25922
Protocol: as §1, §2

[6] = tested on: Lactococcus lactis IL1403
Protocol: as §1, §2

[7] = tested on: Listeria monocytogenes N22-2
Protocol: as §1, §2

[8] = tested on: Pseudomonas aeruginosa ATCC27853
Protocol: as §1, §2

[9] = standard antibiotics, Sensititre panels, triplicates, ≤ = sensitive to lowest concentration in plate
[10] = ATCC33658, read-out: MIC Aermononas salmonicida ATCC33658

Row | Compound | MIC S. Typhimurium [1] [µg/mL] | MIC S. Typhimurium LT2 [1] [µg/mL] | MIC A. salmonicida ([2]; ATCC33658) [µg/mL] | MIC A. salmonicida ATCC33658 ([2]; ATCC33658) [µg/mL] | MIC Y. ruckeri [3] [µg/mL] | MIC Y. ruckeri 392/2003 [3] [µg/mL] | MIC E. faecalis ATCC29212 [4] [µg/mL] | MIC E. coli ATCC25922 [5] [µg/mL] | MIC L. lactis IL1403 [6] [µg/mL] | MIC L. monocytogenes N22-2 [7] [µg/mL] | MIC P. aeruginosa ATCC27853 [8] [µg/mL] | also measured
1 | GLRKRLRKFRNKIKEKLKKICQKIQGLLPKLAPRTDY [Peptide 23] | 8 | 16 | 4 | 16 to 32 | 4 | 16 | 32 | 16 | ≥64 | 16 | 32 | –
2 | GLRKRLRKFRNKNKEKLKKIGQKIQGLLPKLAPRTDY [Peptide I13N] | 8 | – | 8 | – | – | – | – | – | – | – | – | –
3 | GLRKRLRKFRNKHKEKLKKIGQKIQGLLPKLAPRTDY [Peptide 5] | 8 | 4 | 4 | 2 to 4 | 8 | 8 to 16 | ≥64 | 4 | ≥64 | 32 | 8 to 16 | –
4 | GLRKRLRKFRNKIKEKLKKRGQKIQGLLPKLAPRTDY [Peptide I20R] | 8 | – | 16 | – | 16 | – | – | – | – | – | – | –
5 | CC1(C)S[C@@H]2[C@H](NC(=O)[C@H](N)c3ccccc3)C(=O)N2[C@H]1C(=O)O [Ampicillin, reference compound] | – | – | – | – | – | – | – | – | – | – | – | MIC [1, 9]: ≤ 1 µg/mL; MIC ([2]; ATCC33658, standard antibiotics, Sensititre panels, triplicates, ≤ = sensitive to lowest concentration in plate, read-out: MIC Aermononas salmonicida ATCC33658): ≤ 1 µg/mL; MIC [3]: 2 µg/mL (≈ 5.72 µM)
6 | GLRKRLRKFRNKMKEKLKKIGQKIQGLLPKLAPRTDY [Peptide 6] | – | 8 | – | 4 | – | 4 | 8 to 16 | 8 to 16 | 2 | 4 | 8 to 16 | –
7 | GLRKRLRKFRNKIKEKLKKNGQKIQGLLPKLAPRTDY [Peptide 22] | 4 | 8 to 16 | 4 | 16 | 16 | ≥64 | ≥64 | ≥64 | ≥64 | 16 to 32 | 8 to 16 | –
8 | GLRKRLRKFRNKIKEKLKKIGQKGQGLLPKLAPRTDY [Peptide 27] | 4 | 8 to 16 | 8 | 8 | 16 | 32 | ≥64 | ≥64 | ≥64 | 32 | 16 | –
9 | GLRKRLRKFRNKIKEKLKKHGQKIQGLLPKLAPRTDY [Peptide 21] | 2 | 8 | 2 | 4 | 8 | 16 | ≥64 | 32 | 32 | 16 | 8 | –
10 | GLRKRLRKFRNKIKECLKKIGQKIQGLLPKLAPRTDY [Peptide 9] | 8 | 8 to 16 | 4 | 8 | 2 | 8 to 16 | 32 | 8 | ≥64 | 16 | 16 to 32 | –
11 | GLRKRLRKFRNKIKEKCKKIGQKIQGLLPKLAPRTDY [Peptide L17C] | 8 | – | 8 | – | – | – | – | – | – | – | – | –
12 | GLRKRLRKFRNKIKEKLKKIGQKIQGLLPKLAPRHDY [Peptide T35H] | – | – | 2 | – | 2 | – | – | – | – | – | – | MIC L. lactis [6]: 8 µg/mL
13 | CCn1cc(C(=O)O)c(=O)c2ccc(C)nc21 [Nalidixic acid, reference compound] | – | – | – | – | – | – | – | – | – | – | – | MIC [1]: ≤ 4 µg/mL; MIC [2, 10]: ≤ 4 µg/mL; MIC [3]: 32 µg/mL (≈ 138 µM)
14 | GLRKRDRKFRNKIKEKLKKIGQKIQGLLPKLAPRTDY [Peptide L6D] | 8 | – | 16 | – | – | – | – | – | – | – | – | MIC L. lactis [6]: 16 µg/mL
15 | GLRKRLRKFRNKIKEKLKKIGQKIQGLLPKLAPRTDD [Peptide Y37D] | – | – | 2 | – | 2 | – | – | – | – | – | – | MIC L. lactis [6]: 8 µg/mL
16 | GLRKRLRKFRNKIKEKLKKIIQKIQGLLPKLAPRTDY [Peptide G21I] | 8 | – | 8 | – | 8 | – | – | – | – | – | – | –
17 | GLRKRLRKFRNKIKEKHKKIGQKIQGLLPKLAPRTDY [Peptide L17H] | 8 | – | 8 | – | – | – | – | – | – | – | – | –
18 | GLRKRLRKFRNKIKEDLKKIGQKIQGLLPKLAPRTDY [Peptide 10] | – | 4 | – | 2 to 4 | – | 4 | 32 | 4 to 8 | 2 | 4 to 8 | 16 to 32 | –
19 | GLRKRLRKFRNKIKEKLKKIGQKCQGLLPKLAPRTDY [Peptide 25] | 4 | 8 to 16 | 4 | 4 to 8 | 4 | 16 | 64 | 16 | ≥64 | 16 | 16 | –
20 | GLRKRLRKFRNKIKEKLKKEGQKIQGLLPKLAPRTDY [Peptide 20] | 4 | 8 | 8 | 16 | 16 | 32 | ≥64 | ≥64 | 32 | 32 | 16 | –
21 | GLRKRLRKFRNKIKEMLKKIGQKIQGLLPKLAPRTDY [Peptide 14] | 4 | 16 | 4 | 8 to 16 | 4 | 8 to 16 | 32 | 16 | ≥64 | 16 | 16 to 32 | –
22 | GLRKRLRKFRNKIKEKLKKIGQKIQGLLPKCAPRTDY [Peptide L31C] | – | – | 4 | – | 4 | – | – | – | – | – | – | MIC L. lactis [6]: 8 µg/mL
23 | GLRKRRRKFRNKIKEKLKKIGQKIQGLLPKLAPRTDY [Peptide L6R] | 8 | – | 16 | – | 16 | – | – | – | – | – | – | –
24 | GLRKRLRKFRNKIKEKLKKIGQKHQGLLPKLAPRTDY [Peptide I24H] | 8 | – | 8 | – | – | – | – | – | – | – | – | –
25 | Polymyxin E [reference compound] | – | – | – | – | – | – | – | – | – | – | – | MIC Salmonella Typhimurium LT2 [1, 9]: 2 µg/mL; MIC Aermononas salmonicida ATCC33658 [2, 9]: 2 µg/mL; MIC Yersinia ruckeri 392/2003 ([3]; standard antibiotics, Sensititre panels, triplicates): 1 to 2 µg/mL
26 | CNC(C)C1CCC(N)C(OC2C(N)CC(N)C(OC3OCC(C)(O)C(NC)C3O)C2O)O1 (stereo not drawn) [Gentamicin, reference compound] | – | – | – | – | – | – | – | – | – | – | – | MIC [1]: 0.5 to 1 µg/mL (≈ 1.05 to 2.09 µM); MIC [2, 10]: 1 µg/mL (≈ 2.09 µM); MIC [3]: 1 to 2 µg/mL (≈ 2.09 to 4.19 µM)
27 | GLRKRLRKFRNKIKEKLKKQGQKIQGLLPKLAPRTDY [Peptide I20Q] | 8 | – | 8 | – | 8 | – | – | – | – | – | – | –
